The values that follow are results of earlier work, collected in PubChem BioAssay AID1259409 (Chemical Carcinogenesis Research Information System (CCRIS), 2018).

The data set concerns rodent chemically induced tumor inhibition, incidence and multiplicity. As to the kind of experiment: CCRIS tumor inhibitor studies. As to conditions: Dose [Inhibitor]: 0, Promoter: NONE USED.

`N#C[Se]Cc1ccccc1`: the “tumour outcome (control, treated, inhibition, significance)” value was 88%, 56%, 36%, p<0.05 (Carcinogen: 7,12-DIMETHYLBENZ[A]ANTHRACENE, 57-97-6, 1 PPM (AS SELENIUM) IN DIET BEGINNING 2 WK PRIOR TO CARCINOGEN DOSE AND CONTINUING FOR DURATION OF STUDY (STUDY DURAT, Route [Inhibitor]: ORAL, Species: RAT, Strain/Sex: SPRAGUE-DAWLEY/FEMALE, Target Tissue: Type of Lesion: MAMMARY GLAND: ADENOCARCINOMA, Dose [Carcinogen]: 10 MG ONCE AT 55 D OF AGE); 88%, 40%, 55%, p<0.05 (Carcinogen: 7,12-DIMETHYLBENZ[A]ANTHRACENE, 57-97-6, 2 PPM (AS SELENIUM) IN DIET BEGINNING 2 WK PRIOR TO CARCINOGEN DOSE AND CONTINUING FOR DURATION OF STUDY (STUDY DURAT, Route [Inhibitor]: ORAL, Species: RAT, Strain/Sex: SPRAGUE-DAWLEY/FEMALE, Target Tissue: Type of Lesion: MAMMARY GLAND: ADENOCARCINOMA, Dose [Carcinogen]: 10 MG ONCE AT 55 D OF AGE); 88%, 40%, 55%, p<0.05 (Carcinogen: 7,12-DIMETHYLBENZ[A]ANTHRACENE, 57-97-6, 3 PPM (AS SELENIUM) IN DIET BEGINNING 2 WK PRIOR TO CARCINOGEN DOSE AND CONTINUING FOR DURATION OF STUDY (STUDY DURAT, Route [Inhibitor]: ORAL, Species: RAT, Strain/Sex: SPRAGUE-DAWLEY/FEMALE, Target Tissue: Type of Lesion: MAMMARY GLAND: ADENOCARCINOMA, Dose [Carcinogen]: 10 MG ONCE AT 55 D OF AGE); 19/21 (91%), 13/21 (62%), 32%, p<0.05 (Carcinogen: 7,12-DIMETHYLBENZ[A]ANTHRACENE, 57-97-6, 25 PPM IN DIET BEGINNING 2 WK PRIOR TO CARCINOGEN DOSE AND CONTINUING FOR 1 WK POST CARCINOGEN DOSE (STUDY DURATION:, Route [Inhibitor]: ORAL, Species: RAT, Strain/Sex: SPRAGUE-DAWLEY/FEMALE, Target Tissue: Type of Lesion: MAMMARY GLAND: TUMOR, Dose [Carcinogen]: 10 MG IN 1 ML OLIVE OIL ONCE AT 7 WK OF AGE); 85%, 79%, 7%, not significant (Carcinogen: BENZO[A]PYRENE, 50-32-8, 0.045 UMOL/G DIET BEGINNING 1 WK PRIOR TO CARCINOGEN TREATMENT AND CONTINUING FOR 1 WK POST CARCINOGEN TREATMENT FOLL, Route [Inhibitor]: ORAL, Species: MOUSE, Strain/Sex: CD-1/FEMALE, Target Tissue: Type of Lesion: FORESTOMACH: PAPILLOMA, Dose [Carcinogen]: 1 MG IN 0.2 ML CORN OIL 2/WK FOR 4 WK).

`CCCCCCCc1ccco1`: the “tumour outcome (control, treated, inhibition, significance)” value is 14/17 (82%), 10/15 (66%), 20%, not significant (Carcinogen: BENZO[A]PYRENE, 50-32-8, 25 UMOL IN 0.2 ML COTTONSEED OIL 3/WK FOR 4 WK BEGINNING 1 DAY PRIOR TO FIRST CARCINOGEN DOSE AND TERMINATING 1 DAY A, Route [Inhibitor]: GAVAGE, Species: MOUSE, Strain/Sex: STRAIN-A/FEMALE, Target Tissue: Type of Lesion: FORESTOMACH: TUMOR, Dose [Carcinogen]: 1 MG 2/WK FOR 4 WK); 17/17 (100%), 15/15 (100%), 0%, not significant (Carcinogen: BENZO[A]PYRENE, 50-32-8, 25 UMOL IN 0.2 ML COTTONSEED OIL 3/WK FOR 4 WK BEGINNING 1 DAY PRIOR TO FIRST CARCINOGEN DOSE AND TERMINATING 1 DAY A, Route [Inhibitor]: GAVAGE, Species: MOUSE, Strain/Sex: STRAIN-A/FEMALE, Target Tissue: Type of Lesion: LUNG: TUMOR, Dose [Carcinogen]: 1 MG 2/WK FOR 4 WK); 14/17 (82%), 9/12 (75%), 8%, not significant (Carcinogen: BENZO[A]PYRENE, 50-32-8, 50 UMOL IN 0.2 ML COTTONSEED OIL 3/WK FOR 4 WK BEGINNING 1 DAY PRIOR TO FIRST CARCINOGEN DOSE AND TERMINATING 1 DAY A, Route [Inhibitor]: GAVAGE, Species: MOUSE, Strain/Sex: STRAIN-A/FEMALE, Target Tissue: Type of Lesion: FORESTOMACH: TUMOR, Dose [Carcinogen]: 1 MG 2/WK FOR 4 WK); 17/17 (100%), 12/12 (100%), 0%, not significant (Carcinogen: BENZO[A]PYRENE, 50-32-8, 50 UMOL IN 0.2 ML COTTONSEED OIL 3/WK FOR 4 WK BEGINNING 1 DAY PRIOR TO FIRST CARCINOGEN DOSE AND TERMINATING 1 DAY A, Route [Inhibitor]: GAVAGE, Species: MOUSE, Strain/Sex: STRAIN-A/FEMALE, Target Tissue: Type of Lesion: LUNG: TUMOR, Dose [Carcinogen]: 1 MG 2/WK FOR 4 WK).
